This is an account of results in US6040341A, “Compounds and their compositions having anti-inflammatory and anti-thrombotic activities” (Nicox S.A., priority 1995, dated 2000).

One may read the inhibition as the relative decrease from the control value, in per cent. A lower inhibition goes with a response near the control.

The structures appear in SMILES notation. Read-outs that look alike come from different tables or passages of the source.

The subject of data set [1] is human piastrines stimulated by arachidonic acid. The data set can be described thus: Anti-aggregating piastrinic activity, aggregation induced by arachidonic acid. The class given is cell-based. As to conditions: Platelet; for activity at 100 µM / activity at 10 µM: read-out: Piastrinic aggregation (%) induced by arachidonic acid. The method, then: (§1) For the in vitro tests (piastrinic tests) the nitroderivatives, 1 mmol, were dissolved in dimethylsulfoxide and then diluted according to the concentrations listed in the Table.
(§2) Aspirin ASA 30 mmols was dissolved in a mixture of etanol:H2 O in the range 1:10 by volume and then diluted according to the concentrations listed in the Table.

The subject of data set [2] is human piastrines stimulated by trombin. Put plainly: Anti-aggregating piastrinic activity, aggregation induced by trombin. The class given is cell-based. As to conditions: for activity at 1000 µM / activity at 100 µM / activity at 10 µM: read-out: Piastrinic aggregation (%) induced by trombin. As to the method: as §1, §2
For another data set, the target named is T1, cyclooxygenases (Homo sapiens, UniProt P23219).
T1 construct: endogenous in cells; host or cells: human platelets
Put plainly: COX inhibition in human piastrines (Tromboxan B2 level). The class given is cell-based. As to conditions: for COX inhibition (%): 5.10^-5 M; for COX inhibition (%) / inhibition at 100 µM / inhibition at 10 µM: % referred to controls (adding of the aggregating substance only); for inhibition at 100 µM: 10^-4 M; for inhibition at 10 µM: 10^-5 M. The method, then: as §1, §2
The inhibition activity of the cyclooxygenases was determined in human piastrines according to the method described by Patrono et al (Thrombosis Res. 17, 317, 1980). The enzimatic activity was expressed as level of Tromboxan B2 (TX B2) and measured in ng/ml.

In data set [3] the test system is intestinal gastric mucose. Put plainly: Gastric tolerability, oral, in the rat. The format is in vivo. The following applies: for Gastric tolerance: in vivo; for Gastric damage: oral. The method, then:
In the in vivo studies (for example toxicity) the products obtained above were administered in form of suspension in carboxymethylcellulose 1-2% by weight.
The gastric tolerability was evaluated through oral subministration in the rat measuring the seriousness of the gastropathie induced according to the criterium indicated by Wallace et al. (Am. J. Physiol. 259, G642, 1990).

A further data set concerns piastrinic adhesion. Put plainly: Piastrinic adhesion. The format is cell-based. The following applies: from 10^-5 to 10^-4 M. As to the method: as §1, §2
The inhibition activity of the piastrinic adhesion was evaluated according to the method described by Bellavite et al. (Anal. Biochem. 216, 444, 1994).

The subject of data set [4] is calcium concentration inside the piastrine. Put plainly: Intracellular piastrinic calcium. The class given is cell-based. The following applies: from 10^-5 to 10^-4 M. The method, then:
as §1, §2
The effect of the compounds of the invention or comparison compounds on the calcium concentration inside the piastrine was measured according to the method of Pollock et al. (Biochem. J. 235, 869, 1986).

[5] abbreviates: 10^-4 M, % referred to controls (adding of the aggregating substance only).
[6] abbreviates: 10^-5 M, % referred to controls (adding of the aggregating substance only).
Where [7] appears, read: Homo sapiens, Platelet, 10^-4 M, % referred to controls (adding of the aggregating substance only).

T1 sequence (P23219 24-599): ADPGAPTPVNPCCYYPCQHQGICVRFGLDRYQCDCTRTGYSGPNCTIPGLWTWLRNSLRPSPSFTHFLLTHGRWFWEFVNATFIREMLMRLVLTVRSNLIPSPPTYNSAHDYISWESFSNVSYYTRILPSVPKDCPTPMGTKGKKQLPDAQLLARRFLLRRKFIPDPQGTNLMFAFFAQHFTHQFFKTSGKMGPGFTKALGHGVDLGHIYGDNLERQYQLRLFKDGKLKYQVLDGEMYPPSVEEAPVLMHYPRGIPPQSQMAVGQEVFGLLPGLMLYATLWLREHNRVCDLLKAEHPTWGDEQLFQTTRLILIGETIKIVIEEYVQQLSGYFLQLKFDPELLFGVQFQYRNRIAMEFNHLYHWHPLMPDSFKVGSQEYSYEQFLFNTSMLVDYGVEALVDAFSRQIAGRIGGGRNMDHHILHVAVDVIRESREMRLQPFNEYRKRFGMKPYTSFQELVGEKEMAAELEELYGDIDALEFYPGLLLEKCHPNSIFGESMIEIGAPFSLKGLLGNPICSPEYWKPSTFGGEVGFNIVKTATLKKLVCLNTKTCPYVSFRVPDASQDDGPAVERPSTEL

Molecule `CC(=O)Oc1ccccc1C(=O)OCCCCO[N+](=O)[O-]` [ANBE, 2-acetoxy-benzoate of (4-nitroxy)butyl] showed an activity at 1000 µM in data set [1] (10^-3 M, % referred to controls (adding of the aggregating substance only)) of 20%. In data set [1] (setting [5]), the activity at 100 µM was found to be 50%. In data set [1] (setting [6]), the activity at 10 µM stood at 100%. The activity at 1000 µM in data set [2] (Homo sapiens, Platelet, 10^-3 M, % referred to controls (adding of the aggregating substance only)) was 50%. The activity at 100 µM in data set [2] (setting [7]) turned out to be 60%. Moreover, at cyclooxygenases, the “COX inhibition (%)” value is given as 70%, the inhibition at 100 µM is 30% and the inhibition at 10 µM is 80%. The Gastric tolerance result in data set [3] is listed as “very well tolerated in the gastric mucose”. The Gastric damage result in data set [3] (250-500 mg/Kg) is “did not produce relevant damages”.
Take `CC(=O)Oc1ccccc1C(=O)Oc1cccc(CO[N+](=O)[O-])c1` [ANMPE, 2-acetoxy-benzoate of (3-nitroxymetyhyl)fenyl]: the activity at 50 µM in data set [1] (5.10^-5 M, % referred to controls (adding of the aggregating substance only)) is 10%; in data set [2] (Homo sapiens, Platelet, 5.10^-5 M, % referred to controls (adding of the aggregating substance only)), 40%. Further, the activity at 100 µM in data set [1] (setting [5]) and in data set [2] (setting [7]) was 0% each time. Besides, the activity at 10 µM in data set [1] (setting [6]) worked out at 60%; in data set [2] (Homo sapiens, Platelet, 10^-5 M, % referred to controls (adding of the aggregating substance only)) it was 70%. In data set [2] (versus ASA and ANBE), the “Inhibition of piastrinic aggregation induced by trombin, comparison in words” value was “values surprisingly higher both with respect to ANBE and ASA”. At cyclooxygenases, the “COX inhibition (%)” value was determined as 2%. This molecule displayed an inhibition at 10 µM at cyclooxygenases of 5%. Also, the “COX inhibition, comparison in words” value at cyclooxygenases (versus ASA and ANBE) is “activities similar to ASA, but well higher with respect to ANBE”. Also, in data set [3], the Gastric tolerance result is given as “very well tolerated in the gastric mucose”. Also, in data set [3] (250-500 mg/Kg), the Gastric damage result was “did not produce relevant damages”. Also, the “Inhibition of piastrinic adhesion” value in the data set on piastrinic adhesion is “efficient in inhibiting significantly and in a dose-dependent way”. Besides, the “Inhibition of intracellular piastrinic calcium” value in data set [4] was “efficient in inhibiting significantly and in a dose-dependent way”.
Regarding `CC(=O)Oc1ccccc1C(=O)O` [ASA, acetylsalicilic acid], in data set [1], the activity at 10 µM worked out at 40% and the activity at 100 µM is 0%. Besides, in data set [2] (Homo sapiens, Platelet), the activity at 10 µM came to 100%, the activity at 100 µM was determined as 100% and the activity at 1000 µM is 80%. Besides, on cyclooxygenases, the “COX inhibition (%)” value was 3% and testing at 100 µM gave an inhibition of 1%. The Gastric damage entry in data set [3] (50-100 mg/Kg) is “severe damages”.
